Measurements reported in patent US20230092389A1, “UNIT DOSES, AEROSOLS, KITS, AND METHODS FOR TREATING HEART CONDITIONS BY PULMONARY ADMINISTRATION” (InCarda Therapeutics, Inc., priority 2017, published 2023).
Read-outs that look alike come from different tables or passages of the source.

How the values were obtained:
healthy volunteers = conditions: in vivo
Excerpt: (§1) 3 cohorts of subjects, in total 34 healthy adult volunteers, were recruited for Part A study.
(§2) Part B was an open label non-randomized crossover in a cohort of 6 evaluable healthy adult volunteers.
Adverse events were monitored and recorded.

[1] = cited from earlier work
clinical = conditions: human, in vivo; for Tmax: Tmax (min after EOI)
Excerpt: as §1, §2

[2] = IV 2 mg/Kg, n = 3, Mean ± SEM, package insert

O=C(NCC1CCCCN1)c1cc(OCC(F)(F)F)ccc1OCC(F)(F)F (centres unmarked) [flecainide]
Subjects with at least one Study Drug Related, Moderate or Severe TEAE (healthy volunteers; both, human): 1 (4) n (%)
Subjects with at least one TEAE (healthy volunteers; both, human): 22 (88) n (%)
TEAE: Catheter site pain (healthy volunteers; both, human): 2 (8) [2] n (%) [events]
TEAE: Cough (healthy volunteers; both, human): 3 (12) [4] n (%) [events]
TEAE: Diarrhoea (healthy volunteers; both, human): 2 (8) [2] n (%) [events]
TEAE: Dizziness (healthy volunteers; both, human): 3 (12) [3] n (%) [events]
TEAE: Dry mouth (healthy volunteers; both, human): 3 (12) [3] n (%) [events]
TEAE: Dysgeusia (healthy volunteers; both, human): 2 (8) [2] n (%) [events]
TEAE: Dyspnoea (healthy volunteers; both, human): 6 (24) [6] n (%) [events]
TEAE: Gastrointestinal disorders (healthy volunteers; both, human): 8 (32) [11] n (%) [events]
TEAE: General disorders and administration site conditions (healthy volunteers; both, human): 3 (12) [4] n (%) [events]
TEAE: Headache (healthy volunteers; both, human): 4 (16) [5] n (%) [events]
TEAE: Nervous system disorders (healthy volunteers; both, human): 8 (32) [11] n (%) [events]
TEAE: Oropharyngeal discomfort (healthy volunteers; both, human): 11 (44) [11] n (%) [events]
TEAE: Respiratory, thoracic and mediastinal disorders (healthy volunteers; both, human): 17 (68) [25] n (%) [events]
duration of the majority of adverse events (healthy volunteers; both, human): 15 to 90 min
subjects with study-drug related Cough (healthy volunteers; both, human): 12%
subjects with study-drug related Dizziness (healthy volunteers; both, human): 12%
subjects with study-drug related Dry mouth (healthy volunteers; both, human): 12%
subjects with study-drug related Dysgeusia (healthy volunteers; both, human): 8%
subjects with study-drug related Dyspnoea (shortness of breath) (healthy volunteers; both, human): 16%
subjects with study-drug related Headache (healthy volunteers; both, human): 8%
subjects with study-drug related Oropharyngeal discomfort (healthy volunteers; both, human): 40%
average events per subject (healthy volunteers; human): 2
probably study-drug related oropharyngeal discomfort (events) (healthy volunteers; human): 4
study-drug related paresthesia oral (events) (healthy volunteers; human): 3
TEAE: Hypoaesthesia oral (healthy volunteers; human, 2 mg/kg): 1 (14) [1] n (%) [events]
TEAE: Paraesthesia oral (healthy volunteers; human, 2 mg/kg): 3 (43) [3] n (%) [events]
average events per subject (healthy volunteers; human, iv): 7
severe and moderate AEs probably related to study drug (healthy volunteers; human, iv): 1 severe and 2 moderate intensity AEs
study-drug related application site coldness (occurrences) (healthy volunteers; human, iv): 2
study-drug related dizziness (events) (healthy volunteers; human, iv): 6
study-drug related headache (events) (healthy volunteers; human, iv): 5
study-drug related peripheral coldness, palpitations, and chest discomfort, occurrences each (healthy volunteers; human, iv): 2
systolic BP in subject whose IV infusion was interrupted for hypotension (healthy volunteers; human, iv): < 65 mmHg
Number of Moderate or Severe TEAEs (healthy volunteers; human, iv, 2 mg/kg): 4
Number of Related TEAEs (healthy volunteers; human, iv, 2 mg/kg): 35
Number of Related, Moderate or Severe TEAEs (healthy volunteers; human, iv, 2 mg/kg): 4
Number of SAEs (healthy volunteers; human, iv, 2 mg/kg): 0
Number of Subjects with at least one Moderate or Severe TEAE (healthy volunteers; human, iv, 2 mg/kg): 2 (29) n (%)
Number of Subjects with at least one Related TEAE (healthy volunteers; human, iv, 2 mg/kg): 7 (100) n (%)
Number of Subjects with at least one Related, Moderate or Severe TEAE (healthy volunteers; human, iv, 2 mg/kg): 2 (29) n (%)
Number of Subjects with at least one SAE (healthy volunteers; human, iv, 2 mg/kg): 0 n (%)
Number of Subjects with at least one TEAE (healthy volunteers; human, iv, 2 mg/kg): 7 (100) n (%)
Number of Treatment-Emergent Adverse Events (healthy volunteers; human, iv, 2 mg/kg): 49
TEAE: Application site coldness (healthy volunteers; human, iv, 2 mg/kg): 2 (29) [2] n (%) [events]
TEAE: Catheter site pain (healthy volunteers; human, iv, 2 mg/kg): 2 (29) [2] n (%) [events]
TEAE: Chest discomfort (healthy volunteers; human, iv, 2 mg/kg): 1 (14) [3] n (%) [events]
TEAE: Dizziness (healthy volunteers; human, iv, 2 mg/kg): 6 (86) [6] n (%) [events]
TEAE: Fatigue (healthy volunteers; human, iv, 2 mg/kg): 2 (29) [2] n (%) [events]
TEAE: Gastrointestinal disorders (healthy volunteers; human, iv, 2 mg/kg): 5 (71) [6] n (%) [events]
TEAE: General disorders and administration site conditions (healthy volunteers; human, iv, 2 mg/kg): 4 (57) [13] n (%) [events]
TEAE: Headache (healthy volunteers; human, iv, 2 mg/kg): 5 (71) [6] n (%) [events]
TEAE: Nervous system disorders (healthy volunteers; human, iv, 2 mg/kg): 7 (100) [13] n (%) [events]
TEAE: Peripheral coldness (healthy volunteers; human, iv, 2 mg/kg): 2 (29) [3] n (%) [events]
TEAE: Respiratory, thoracic and mediastinal disorders (healthy volunteers; human, iv, 2 mg/kg): 2 (29) [3] n (%) [events]
TEAE: Vascular disorders (healthy volunteers; human, iv, 2 mg/kg): 3 (43) [4] n (%) [events]
fewer TEAEs with IH than IV (healthy volunteers; human, iv, 2 mg/kg): 4 fold
remaining study-drug related events (cough, dysphonia, dyspnoea, oral hypoesthesia, chest discomfort) (healthy volunteers; human, po): occurred once in 1 subject each
AEs occurring more frequently than with placebo (healthy volunteers): oropharyngeal discomfort, shortness of breath (dyspnoea), cough and dry mouth
dose dependence of incidence of AEs (healthy volunteers): appears not to be dose-dependent
intensity of TEAEs (healthy volunteers): mild in intensity
serious adverse events (healthy volunteers): No serious adverse events were reported
tolerability of inhalation (healthy volunteers): well tolerated, and no subject interrupted the inhalation
AUClast [1, 2]: 4211 ± 456 ng·h/mL
Cmax [1, 2]: 1644 ± 534 ng/mL
Tmax ([1]; IV 2 mg/Kg, n = 3, package insert): 10.0 min
Dist. t1/2 ([1]; in vivo, iv, 2 mg/kg): 2.6 ± 0.7 min
Elim. t1/2 ([1]; in vivo, iv, 2 mg/kg): 9.3 ± 0.1 h
half-life (clinical; both): 3.5 to 4.2 min
half-life (clinical; inhaled or intranasal, 30 mg): 4.67 min
Tmax (clinical; inhaled or intranasal, 30 mg): ≤ 1 min
half-life (clinical; iv, 2 mg/kg): 4.28 min
Tmax (clinical; iv, 2 mg/kg): 1 to 60 min
